Source: patent US20260053777A1, “USE OF NRF2 ACTIVATORS FOR THE TREATMENT OF CEREBRAL SMALL VESSEL DISEASE” (INSTITUT NATIONAL DE LA SANTÉ ET DE LA RECHERCHE MÉDICALE, priority 2022, published 2026)

Legend:
[1] = test system: Human brain microvascular endothelial cells (HBMEC); assay: Cellrox Green detection of oxidative stress in HBMEC treated with control or TRIM47 siRNA and Luperox; format: cell-based; conditions: Luperox, pre-treatment with tBHQ
Procedure: Human brain microvascular endothelial cells (HBMEC) were treated with control or TRIM47 siRNA and with/without Luperox (inducer of oxidative stress) and incubated with Cellrox Green dye (detection of oxidative stress).

[2] = test system: Nrf2 and its target genes; assay: qPCR screening of Nrf2 and its target genes on brain endothelial cells isolated from adult mice with/without tBHQ diet; format: in vivo
[3] = test system: Trim47 −/− adult mice; assay: Water maze behavioural test on adult mice with/without a diet with tBHQ; format: in vivo
Procedure: FIG. 4. TRIM47 is essential to brain physiology by promoting the NRF2 antioxidant protective system. […] B. RNA-sequencing was performed on HBMEC treated with control or TRIM47 siRNA. C. Assessment of blood brain barrier (BBB) permeability was done on Trim47 +/+ and Trim47 −/− adult mice. Mann-Whitney test. D. Representative image by immunofluorescence of GFAP expression (activated astrocytes) in brain sections from Trim47 +/+ and Trim47 −/− adult mice. E. Water maze behavioural test performed on adult mice with/without a diet with tBHQ. Two-way ANOVA with repeated measures. […] Latency to reach platform is shown for the 4 training days (FIG. 4E).

[4] = test system: NRF2; assay: Rescue of the effect of TRIM47 knockdown by activation of NRF2 at the protein level (FIG. 3); format: cell-based, human; conditions: tBHQ stabilizing NRF2 protein
Description: FIG. 3. […] Methods. TRIM47 interacting effectors were searched by proximity labeling assay (BioID) in human brain EC. TRIM47 knockdown in EC allowed to explore TRIM47 role in functional assays, and to identify transcriptional response by RNA-sequencing.

[5] = Trim47 KO mice, brain EC, +tBHQ diet (1% W/W, 1 month), mean of n = 5
[6] = Trim47 WT mice, brain EC, +tBHQ diet (1% W/W, 1 month), mean of n = 5

Compound: CC(C)(C)c1cc(O)ccc1O [tBHQ, tert-butylhydroquinone]
- Induction of oxidative stress (Cellrox Green dye) [1]: reversed induction of oxidative stress
- Relative gene expression fold change (normalized to Pecam1): Cdh5 (BBB integrity) [2, 5]: 0.967
- Relative gene expression fold change (normalized to Pecam1): Cldn5 (BBB integrity) [2, 5]: 0.877
- Relative gene expression fold change (normalized to Pecam1): Cldn11 (BBB integrity) [2, 5]: 1.020
- Relative gene expression fold change (normalized to Pecam1): Gclm (Nrf2 pathway) [2, 5]: 1.009
- Relative gene expression fold change (normalized to Pecam1): Hmox1 (Nrf2 pathway) [2, 5]: 1.095
- Relative gene expression fold change (normalized to Pecam1): Keap1 (Nrf2 pathway) [2, 5]: 0.730
- Relative gene expression fold change (normalized to Pecam1): Me1 (Nrf2 pathway) [2, 5]: 1.148
- Relative gene expression fold change (normalized to Pecam1): Nfe2l2 (Nrf2 pathway) [2, 5]: 1.040
- Relative gene expression fold change (normalized to Pecam1): Nqo1 (Nrf2 pathway) [2, 5]: 1.084
- Relative gene expression fold change (normalized to Pecam1): Ocln (BBB integrity) [2, 5]: 0.895
- Relative gene expression fold change (normalized to Pecam1): Slc7a11 (Nrf2 pathway) [2, 5]: 1.145
- Relative gene expression fold change (normalized to Pecam1): Cdh5 (BBB integrity) [2, 6]: 1.013
- Relative gene expression fold change (normalized to Pecam1): Cldn5 (BBB integrity) [2, 6]: 1.071
- Relative gene expression fold change (normalized to Pecam1): Cldn11 (BBB integrity) [2, 6]: 1.016
- Relative gene expression fold change (normalized to Pecam1): Gclm (Nrf2 pathway) [2, 6]: 0.999
- Relative gene expression fold change (normalized to Pecam1): Hmox1 (Nrf2 pathway) [2, 6]: 1.033
- Relative gene expression fold change (normalized to Pecam1): Keap1 (Nrf2 pathway) [2, 6]: 1.014
- Relative gene expression fold change (normalized to Pecam1): Me1 (Nrf2 pathway) [2, 6]: 1.033
- Relative gene expression fold change (normalized to Pecam1): Nfe2l2 (Nrf2 pathway) [2, 6]: 1.007
- Relative gene expression fold change (normalized to Pecam1): Nqo1 (Nrf2 pathway) [2, 6]: 1.033
- Relative gene expression fold change (normalized to Pecam1): Ocln (BBB integrity) [2, 6]: 1.025
- Relative gene expression fold change (normalized to Pecam1): Slc7a11 (Nrf2 pathway) [2, 6]: 1.030
- Relative gene expression fold change (normalized to Pecam1): Trim47 [2, 6]: 1.066
- Impairment of the Nrf2 pathway in Trim47 −/− mice (qPCR, brain endothelial cells) ([2]; Trim47 −/− adult mice, 1-month diet with tBHQ (1% W/W)): prevented
- Cognitive impairment in water maze (latency to reach platform, 4 training days) [3]: prevent cognitive impairment
- Effect of TRIM47 knockdown (FIG. 3) [4]: partly rescues the effect of TRIM47 knockdown
